Results reported in US20220142165A1 (priority 2019, published 2022).

How the values were obtained:
[1] = test system: tomato late blight pathogen (Phylophihora infeslans); assay: whole plant or invertebrate; assay type: in vivo; conditions: Phytophthora infestans, 96 h, read-out: Control value
[2] = test system: grape downy mildew pathogen (Plasmopara viticola); assay: Grape downy mildew control test (Test Example 2); assay type: in vivo; conditions: 100 ppm by mass, sprayed on grape leaf disc (variety Chardonnay) before inoculation, blotch area ratio seven days after inoculation, 20° C.; for pest or weed control at 100 ppm: Plasmopara viticola, foliar, 168 h
Description: 5 parts by mass of the compound according to the present invention, 93.5 parts by mass of dimethylformamide, and 1.5 parts by mass of polyoxyethylene alkylaryl ether were mixed and dissolved to prepare an emulsion (I) containing 5% by mass of an active ingredient.
The control value was calculated according to the following formula.
Control value (%)=100−{blotch area ratio in treated area/blotch area ratio in untreated area}×100
Water was added to the emulsion (I) such that the concentration of the heterocyclic compound became 100 ppm by mass, and then the heterocyclic compound was dissolved therein to obtain a pharmaceutical solution. Then, the pharmaceutical solution was sprayed on a leaf disc of grape (variety “Chardonnay”) placed on agar in a 6-well plate. After air-drying, the leaf disc on which the pharmaceutical solution was sprayed was inoculated with zoosporangia of grape downy mildew pathogen (Plasmopara viticola) in a suspension by spraying the suspension thereon (treated area). As a control, a leaf disc on which no pharmaceutical solution was sprayed was inoculated in the same way as mentioned above (untreated area). The resultant leaf discs were left in a moist chamber at 20° C. Seven days after inoculation, the grape leaf discs were visually observed to measure the blotch area ratio to calculate the control value.

Structure (SMILES)	pest or weed control at 125 ppm [1] [%]	pest or weed control at 100 ppm [2] [%]	Control value [2]
CCCCC(Oc1ccc2ncsc2c1)c1nnco1 (stereo not drawn) [a-1, 2-(1-(benzo[d]thiazol-6-yloxy)pentyl)-1,3,4-oxadiazole]	≥ 75		
Fc1ccc(C(Oc2ccc3ncsc3c2)c2nnco2)nc1 (stereo not drawn) [a-8, 2-((benzo[d]thiazol-6-yloxy)(5-fluoropyridin-2-yl)methyl)-1,3,4-oxadiazole]	≥ 75	≥ 75	
Fc1ccc(C(Oc2cc(Br)c3ncsc3c2)c2nnco2)nc1 (stereo not drawn) [a-20, 2-((4-bromobenzo[d]thiazol-6-yloxy)(5-fluoropyridin-2-yl)methyl)-1,3,4-oxadiazole]	≥ 75	≥ 75	
CC#Cc1ccnc(C(Oc2ccc3ncsc3c2)c2nnco2)c1 (stereo not drawn) [a-45, 2-((benzo[d]thiazol-6-yloxy)(4-(prop-1-yn-1-yl)pyridin-2-yl)methyl)-1,3,4-oxadiazole]	≥ 75	≥ 75	
CCOCc1ccnc(C(Oc2ccc3ncsc3c2)c2nnco2)c1 (stereo not drawn) [a-75]			a-75%
COCOCc1ccnc(C(Oc2ccc3nc(C)sc3c2)c2nnco2)c1 (stereo not drawn) [a-175]			a-175%
CCCCC(Oc1ccc2ncn(C)c2c1)c1nnco1 (stereo not drawn) [b-4]	≥ 75		
c1ccc(C(Nc2ccc3ncsc3c2)c2nnco2)cc1 (stereo not drawn) [b-5]	≥ 75		
Cn1cnc2ccc(OC(c3ccc(F)cn3)c3nnco3)cc21 (stereo not drawn) [b-6]	≥ 75		
Cn1cnc2ccc(OC(c3ccc(Cl)cc3)c3nnco3)cc21 (stereo not drawn) [b-7]	≥ 75		
Cn1cnc2c(F)cc(OC(c3ccc(F)cn3)c3nnco3)cc21 (stereo not drawn) [b-8]	≥ 75		
CO/N=C/c1ccnc(C(Oc2ccc3ncsc3c2)c2nnco2)c1 (stereo not drawn) [b-9]	≥ 75	≥ 75	
CO/N=C/c1ccnc(C(Oc2cc(Br)c3ncsc3c2)c2nnco2)c1 (stereo not drawn) [b-13]	≥ 75	≥ 75	
CCc1cc(OC(c2cc(/C=N/OC)ccn2)c2nnco2)cc2scnc12 (stereo not drawn) [b-14]	≥ 75	≥ 75	
CC(C)O/N=C/c1ccnc(C(Oc2ccc3ncsc3c2)c2nnco2)c1 (stereo not drawn) [b-18]	≥ 75	≥ 75	
C#CCO/N=C/c1ccnc(C(Oc2ccc3ncsc3c2)c2nnco2)c1 (stereo not drawn) [b-20]	≥ 75	≥ 75	
CO/N=C/c1ccnc(C(Oc2ccc3ncsc3c2)c2nnco2)n1 (stereo not drawn) [b-25]	≥ 75		
CO/N=C/c1ccnc(C(Oc2ccc3nc(OC)sc3c2)c2nnco2)c1 (stereo not drawn) [b-28]		≥ 75	
CCc1nc2ccc(OC(c3cc(/C=N/OC)ccn3)c3nnco3)cc2s1 (stereo not drawn) [b-29]	≥ 75	≥ 75	
CC(C)=NOc1ccnc(C(Oc2ccc3ncsc3c2)c2nnco2)c1 (stereo not drawn) [b-33]	≥ 75	≥ 75	
CNc1nc2ccc(OC(c3cc(/C=N/OC)ccn3)c3nnco3)cc2s1 (stereo not drawn) [b-36]	≥ 75	≥ 75	
CO/N=C/c1cc(C(Oc2ccc3ncsc3c2)c2nnco2)ncc1Cl (stereo not drawn) [b-37]	≥ 75	≥ 75	
CO/N=C\c1cc(C(Oc2ccc3ncsc3c2)c2nnco2)ncc1F (stereo not drawn) [b-38]	≥ 75	≥ 75	
CO/N=C/c1cc(C(Oc2ccc3ncsc3c2)c2nnco2)ncc1SC (stereo not drawn) [b-41]		≥ 75	
CO/N=C/c1cc(C(Oc2ccc3ncsc3c2)c2nnco2)ncc1C (stereo not drawn) [b-59]		≥ 75	
C(=N\OCc1nnco1)/c1ccnc(C(Oc2ccc3ncsc3c2)c2nnco2)c1 (stereo not drawn) [b-67]	≥ 75		
CO/N=C/c1cc(C(Oc2ccc3ncsc3c2N)c2nnco2)ncc1F (stereo not drawn) [b-78]	≥ 75		
C(=NOCc1ccccc1)C(Oc1ccc2ncsc2c1)c1nnco1 (stereo not drawn) [b-81]		≥ 75	
CCCCON=CC(Oc1ccc2ncsc2c1)c1nnco1 (stereo not drawn) [b-83]		≥ 75	
